Results as given in patent US20200315998A1, “COMPOSITION FOR IMPROVING INTESTINAL BARRIER FUNCTION” (SUNTORY HOLDINGS LIMITED, priority 2017, published 2020).

Test system: Caco-2 cells
Experiment: Evaluation of intestinal barrier function improvement: TEER reduction suppression in Caco-2 monolayer with inflammatory cytokines (TNFα, IL-1β, IFNγ)
Assay type: cell-based, human
Details: for Synergistic effect (M.V./T.V.) / TEER reduction suppression ratio (%) +gallic acid (actual measurement value) (M.V.) / Synergistic effect (M.V./T/V/): combined use of phenolic compound and gallic acid; for TEER reduction suppression ratio (%) +gallic acid (theoretical value) (T.V.): sum of ratios of phenolic compound alone and gallic acid alone; for Relative value of TEER reduction suppression ratio: sample alone 1 μM; for Synergistic effect (relative value of actual measurement value / relative value of theoretical value): combined use of the phenolic compound with gallic acid, 1 μM each (Table 1)
Excerpt: The intestinal barrier function improvement effect is indicated by, for example, increase in the electrical resistance value (transepithelial electric resistance: TEER) of the intestinal epithelial cells or suppression of the decrease in the TEER. A substance increasing the TEER or suppressing the decrease thereof has the action of normalizing or strengthening the tight junction in the intestinal epithelial cells. The intestinal barrier function improvement effect is also indicated by decrease in the amount of a substance permeating from the intestinal side of the intestinal epithelial cells to the inside of the body. The person skilled in the art can select a specific method of evaluating the intestinal barrier function improvement effect depending on the purpose. For exarple, as shown in Examples to be described later, a method for measuring TEER using an intestinal permeation model using human intestinal epithelial cells (Caco-2 cells) can be used. Specifically, inflammatory cytokine (TNFα, IL-1β, IFNγ and the like) is added into Caco-2 monolayer cultured cells to produce a state where the intestinal barrier function can be collapsed in human. If the addition of a test substance suppresses the decrease in the TEER as compared with the case where the substance is not added, the test substance can be evaluated to have the intestinal barrier function improvement effect.
Caco-2 cells were cultured for three weeks at 37° C. in Transwell (manufactured by Millicell Corporation) using DMEM (Dulbecco's modified Eagle's medium). A medium was removed from a plate of cultured Caco-2 cells, and the well was washed 3 times with serum-free DMEM. The well was filled with the medium. Then, the transepithelial electrical resistance (TEER) of Caco-2 monolayer cells was measured by Millicell-ERS (manufactured by Millipore Corporation). Cells (TEER≥1000 Ω·cm^2) determined that a sufficient tight junction was formed were selected, and used for the next screening. Then, to test solutions (media) on both apical and basolateral membrane sides, a sample, TNFα (40 ng/mL), IL-1β (20 ng/mL), and IFNγ (10 ng/mL) were added, followed by cultivating for 48 hours. The sample was dissolved in dimethyl sulfoxide (DMSO), and the solution was then added to the test solutions. In this case, a well to which inflammatory cytokine (TNFα, IL-1β, and IFNγ) and the sample were not added was provided as normal. A well to which inflammatory cytokine was added and the sample was not added was provided as control. After the cultivation, TEER was measured again, to evaluate whether the sample suppressed the reduction (decrease) of TEER due to the inflammatory cytokine.
The TEER reduction suppression ratio (%) due to the sample was determined according to the following formula from the TEER values of the well to which the sample was added, normal, and control.
(Calculating formula of TEER reduction suppression ratio) TEER reduction suppression ratio (%)=100×((TEER of well to which sample is added)−(TEER of control))/((TEER of normal)−(TEER of control))
In this evaluation system, as the TEER reduction suppression ratio (%) is higher, an intestinal barrier function improvement effect is higher.

Row | Compound | Synergistic effect (M.V./T.V.) (each 1 μM) | TEER reduction suppression ratio (%) +gallic acid (actual measurement value) (M.V.) (each 1 μM) [%] | Synergistic effect (M.V./T/V/) (each 10 μM) | TEER reduction suppression ratio (%) +gallic acid (actual measurement value) (M.V.) (each 10 μM) [%] | further results
1 | O=C(OC[C@H]1O[C@@H](OC(=O)c2cc(O)c(O)c(O)c2)[C@H](O)[C@@H](O)[C@@H]1OC(=O)c1cc(O)c(O)c(O)c1)c1cc(O)c(O)c(O)c1 [1,4,6-tri-O-galloyl-β-D-glucose] | 1.7 | 40 |  |  | 
2 | COc1cc(-c2[o+]c3cc(O)cc(O)c3cc2O)cc(O)c1O [Petunidin chloride, petunidin chloride] |  |  | 1.9 | 70 | 
3 | stenophyllanin B | 1.3 | 82 |  |  | TEER reduction suppression ratio (%) +gallic acid (theoretical value) (T.V.) (1 μM each): 66%
4 | O=C(O)c1cc(O)c(O)c(O)c1Oc1cc2c(c(O)c1O)-c1c(cc(O)c(O)c1O)C(=O)O[C@@H]1C(COC2=O)O[C@@H](O)C2OC(=O)c3cc(O)c(O)c(O)c3-c3c(cc(O)c(O)c3O)C(=O)OC21 (stereo partly shown) [Praecoxin A, praecoxin A] | 1.4 | 104 |  |  | 
5 | OC[C@H]1O[C@@H](Oc2cc(O)cc(/C=C/c3ccc(O)cc3)c2)[C@H](O)[C@@H](O)[C@@H]1O (relative stereo) [trans-Piceid, trans-piceid] |  |  | 1.5 | 65 | TEER reduction suppression ratio (%) +gallic acid (theoretical value) (T.V.) (10 μM each): 45%
6 | Oc1cc(O)c2c(c1)O[C@H](c1ccc(O)c(O)c1)[C@H](O)[C@H]2c1c(O)cc(O)c2c1O[C@H](c1ccc(O)c(O)c1)[C@H](O)C2 [Procyanidin B2, procyanidin B2] |  |  | 1.5 | 76 | TEER reduction suppression ratio (%) +gallic acid (theoretical value) (T.V.) (10 μM each): 51%
7 | C[C@@H]1O[C@@H](OC[C@H]2O[C@@H](Oc3c(-c4ccc(O)c(O)c4)oc4cc(O)cc(O)c4c3=O)[C@H](O)[C@@H](O)[C@@H]2O)[C@H](O)[C@H](O)[C@H]1O [Rutin, rutin] |  |  | 2.9 | 45 | 
8 | O=C(OC[C@H]1O[C@@H](OC(=O)c2cc(O)c(O)c(O)c2)[C@H](OC(=O)c2cc(O)c(O)c(O)c2)[C@@H](O)[C@@H]1OC(=O)c1cc(O)c(O)c(O)c1)c1cc(O)c(O)c(O)c1 [1,2,4,6-tetra-O-galloyl-β-D-glucose] | 1.4 | 56 |  |  | 
9 | O=c1c(-c2ccc(O)cc2)coc2cc(O)ccc12 [Daidzein, daidzein] |  |  | 1.8 | 50 | 
10 | O=C1C[C@@H](c2ccc(O)cc2)Oc2cc(O)cc(O)c21 [Naringenin, naringenin] |  |  | 2.0 | 61 | 
11 | Oc1cc(O)c2c(c1)O[C@H](c1ccc(O)c(O)c1)[C@H](O)C2 [Epicatechin (EC), epicatechin] |  |  |  |  | Relative value of TEER reduction suppression ratio (Evaluation 2, epicatechin (EC) set to 1.0): 1.0; Synergistic effect (relative value of actual measurement value / relative value of theoretical value): 1.7
12 | Oc1cc(O)c2c(c1)O[C@H](c1ccc(O)c(O)c1)[C@@H](O)[C@@H]2c1c(O)cc(O)c2c1O[C@H](c1ccc(O)c(O)c1)[C@@H](O)C2 [Procyanidin B3, procyanidin B3] |  |  | 1.9 | 77 | TEER reduction suppression ratio (%) +gallic acid (theoretical value) (T.V.) (10 μM each): 53%
13 | O=C(O[C@@H]1COC(=O)c2cc(O)c(O)c(O)c2-c2c(cc(O)c(O)c2O)C(=O)O[C@H]1[C@@H]1OC(=O)c2cc(O)c(O)c(O)c2-c2c(O)c(O)c(O)c3c2C(=O)O[C@H]1[C@@H]3O)c1cc(O)c(O)c(O)c1 [Casuarinin, casuarinin] | 1.4 | 81 |  |  | 
14 | eugeniflorin D2 | 1.3 | 102 |  |  | TEER reduction suppression ratio (%) +gallic acid (theoretical value) (T.V.) (1 μM each): 80%
15 | Oc1cc(O)c2c(c1)O[C@H](c1cc(O)c(O)c(O)c1)[C@H](O)C2 [Epigallocatechin (EGC), epigallocatechin] |  |  |  |  | Relative value of TEER reduction suppression ratio (Evaluation 4, epigallocatechin (EGC) set to 1.0): 1.0; Synergistic effect (relative value of actual measurement value / relative value of theoretical value): 1.5
16 | O=c1c(O)cc([C@H]2Oc3cc(O)cc(O)c3C[C@H]2O)cc2c([C@H]3Oc4cc(O)cc(O)c4C[C@H]3O)cc(O)c(O)c12 [Theaflavin, theaflavin] |  |  | 1.6 | 98 | 
